Data taken from US10245249B2, “Pharmaceutical compositions comprising nitroxyl donors” (Cardioxyl Pharmaceuticals, Inc., priority 2013, dated 2019).

Experiments:
normal canines = test: Hemodynamic efficacy in normal canines (pressure-volume loop analysis); assay type: in vivo, beagle dogs; conditions: i.v. infusion, Dose Rate (μmol/kg/min): CXL-1020 100, (1) 50, (2) 100, (83) 65, (84) 77
Method: The cardiovascular effects of nitroxyl donors were examined by means of pressure-volume (PV) curve (loops) analysis in conscious, sling-restrained beagle dogs. Animals were allowed free access to drinking water and a commercial canine diet under standard laboratory conditions. Fluorescent lighting was provided via an automatic timer for approximately 12 hours per day. On occasion, the dark cycle was interrupted intermittently due to study-related activities. Temperature and humidity were monitored and recorded daily and maintained to the maximum extent possible between 64° F. and 84° F. and 30% to 70%, respectively. The dogs were acclimated for a period of at least 1 week prior to surgery. Following surgery and recovery the animals were acclimated to sling restraint for a period up to 4.5 hours. Animals were fasted overnight prior to surgery. An indwelling venous catheter was placed in peripheral vein (e.g., cephalic) for administration of anesthetic. General anesthesia was induced intravenously (bolus) with buprenorphine (about 0.015 mg/kg) followed by an intravenous bolus of propofol (about 6 mg/kg). Additionally, a prophylactic antibiotic (cefazolin 20 to 50 mg/kg via i.v.) was given upon induction. […] Anesthesia was maintained with inhaled isoflurane (1% to 3%). Once a stable (surgical) plane of anesthesia had been established, a left-thoracotomy was performed (under strict aseptic conditions) and each animal was chronically instrumented with sono-micrometry crystals providing left-ventricular (LV) dimensions/volume. Additionally, a fluid-filled catheter and a solid-state monometer were placed in the left ventricle for pressure monitoring. A fluid-filled catheters was placed in the right ventricle (RV) and the aorta (Ao) for pressure monitoring/test article administration. […] The catheters/wires were aseptically tunneled and externalized between the scapulae. Over the course of the study, fluid-filled catheters were regularly (at least once weekly) flushed with a locking-solution in order to prevent both clotting and bacterial growth (2-3 mL of Taurolidine-Citrate solution, TCS-04; Access Technologies). Following the cardiovascular instrumentation, the right jugular vein was carefully exposed and cannulated with a bipolar pacing lead/catheter ([…]® Novus; Medtronic). Under fluoroscopic guidance, this pacing lead was advanced normograde into the right ventricle and actively affixed (screwed in) to the apical endocardium. The proximal end of the lead was secured to the pacing device (Kappa 900; Medtronic). Subsequently, the pacemaker was placed/secured in a subcutaneous pocket in the neck. Considering that the heart was exposed via a thoracotomy, a bipolar pacing wire was secured in the right ventricular mid-myocardium. This pacing lead was tunneled/externalized between the scapulae, and used in conjunction with an external impulse generator/pacemaker. The implanted endocardial pacemaker was used as a back-up to the external/epicardial pacemaker. Prior to closure of the chest from the thoracotomy, a chest tube was placed for drainage of any fluid and/or gas that accumulated from the surgical procedure. The tube was aspirated twice daily until the amount of fluid removed was less than 35 mL per aspiration in an approximately 24 hour period. The chest tube was then removed. All animals were administered a prophylactic antibiotic (cefazolin 20 to 50 mg/kg via i.v.) and pain medication (meloxicam at about 0.2 mg/kg via i.v.). If necessary, an additional analgesic was also administered which included a fentanyl patch (25 to 50 mcg/hour). All surgical incisions were closed in layers; the underlying musculature was closed with absorbable sutures and the skin was closed with staples. Following surgery, the animals were allowed to recover for at least 14 days. Cephalexin (20 to 50 mg/kg) was administered orally BID for at least 7 days and meloxicam (0.1 mg/kg) was administered SID orally or subcutaneously for at least 2 days after surgery. […]

dogs = test: Canine implanted central catheter 72 hour continuous infusion model (clinical and microscopic pathology of vasculature); assay type: in vivo; conditions: for NOAEL (μg/kg/min) (molar equivalent to CXL-1020): based on microscopic pathology markers (edema, hemorrhage, vascular and perivascular inflammation); for toxicological profile relative to CXL-1020: microscopic pathology, Table 8
Method: To determine the cause of the inflammation and hind limb swelling, a series of 72-hour continuous infusion investigative studies were conducted over the following 6 months. […] The first site of inflammation, the catheter insertion site, caused the dog hind limb swelling and inflammation observed in the early-terminated follow-up study. Increasing infusate pH from 4 to 6 decreased inflammation, improving the inflammatory profile by approximately 3-fold (see FIG. 4).
Confirmation of this was obtained through evaluating the nitroxyl donors through detailed histopathology of the vasculature at the site of insertion of into the femoral vein (15 cm distal to the catheter tip), along the catheter track to the catheter tip, and past the tip downstream 20 cm.
A composite score was calculated from the sum of these findings scores. In FIG. 3, the cumulative histology composite score ranges from 0-2 (low severity) to 11-12 (high severity). […] The NOAEL values determined based on these microscopic pathology markers for a series of nitroxyl donors, expressed in molar equivalent dose rates (μg/kg/min) to CXL-1020, are provided in Table 8.

[1] = In vitro stability (half-life) in human plasma; assay type: in vitro ADME; conditions: human plasma pH 7.4 with anticoagulant, 37° C.; for T1/2 (minutes) Human: 5 μM; for half-life at 5 μM: male, read-out: T1/2 (minutes) Human
Method: (§1) Certain compounds from Tables 1 and 2 and CXL-1020 were tested for their stability in phosphate buffered saline (PBS) and plasma. The assay system comprised (i) PBS, or plasma from rat, dog or human (at least 3 donors, male, pooled) at pH 7.4, and (ii) for tests conducted in plasma, an anticoagulant (sodium heparin or sodium citrate). Each test compound (5 μM) was incubated in PBS or plasma at 37° C. on a THERMOMIXER® with shaking. Three samples (n=3) were taken at each of seven sampling time points: 0, 10, 30, 60, 90, 180 and 360 minutes. The samples were immediately combined with 3 volumes (i.e., 3 times the volume of PBS or plasma) of acetonitrile containing 1% formic acid and an internal standard to terminate the reaction. AB SCIEX API 3000 LC-MS/MS analysis of the test compounds was performed without a standard curve. Half-lives (T1/2) of the test compounds were determined from graphs of the percent remaining values using the peak area response ratio. For compounds tested multiple times, the value provided in the Table represents an average of the replicate assays.

[2] = In vitro stability (half-life) in phosphate buffered saline (PBS) pH 7.4; assay type: physicochemical; conditions: pH 7.4, 5 μM, PBS pH 7.4, 37° C., read-out: T1/2 (minutes) PBS
Procedure, shortened: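 Compounds at 5 μM were incubated at 37° C in PBS or in rat, dog or pooled human plasma (heparin or citrate) at pH 7.4. Triplicates were sampled from 0 to 360 minutes and quenched in acetonitrile/formic acid. LC-MS/MS percent remaining gave T1/2, averaged over replicate runs.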

[3] = In vitro stability (half-life) in dog plasma; assay type: in vitro ADME; conditions: male, dog, plasma, pH 7.4, 5 μM, dog plasma pH 7.4 with anticoagulant, 37° C.; read-out: T1/2 (minutes) Dog
Method: as §1

CS(=O)(=O)c1ccccc1S(=O)(=O)NO [CXL-1020, N-hydroxy-2-methanesulfonylbenzene-1-sulfonamide, reference compound]
EDV (normal canines): −20.51 ± 7.63 % Change from Baseline | ESP (normal canines): −17.79 ± 3.09 % Change from Baseline | ESPVR (normal canines): 28.25 ± 8.69 % Change from Baseline | HR (normal canines): 6.71 ± 4.72 % Change from Baseline | PRSW (normal canines): 12.60 ± 2.96 % Change from Baseline | SW (normal canines): −13.96 ± 5.51 % Change from Baseline | Tau (normal canines): −6.58 ± 4.53 % Change from Baseline | findings around catheter insertion site, at catheter tip and downstream (dogs; 72-hour infusion, dogs): Vascular inflammation | NOAEL (μg/kg/min) (molar equivalent to CXL-1020) (dogs): <3 µg/kg/min | dose rates at which significant undesirable side effects were still demonstrated (dogs; infusate pH 6, dogs): greater than or equal to 3 μg/kg/min | dose rates causing clinical pathology changes consistent with an inflammatory process (dogs; pH 4 formulation, 1:1 molar CXL-1020:CAPTISOL, diluted in 5% dextrose, 72-hour infusion, dogs): greater than or equal to 0.03 μg/kg/min

Cc1ccc(S(=O)(=O)NO)o1 [Compound 1, N-Hydroxy-5-methylfuran-2-sulfonamide]
T1/2 (minutes) Human [1]: 65 min | EDV (normal canines): −6 ± 2 % Change from Baseline | ESP (normal canines): −18 ± 2 % Change from Baseline | ESPVR (normal canines): 19 ± 1 % Change from Baseline | HR (normal canines): −4 ± 2 % Change from Baseline | PRSW (normal canines): 12 ± 1 % Change from Baseline | SW (normal canines): −11 ± 4 % Change from Baseline | Tau (normal canines): −6 ± 1 % Change from Baseline | NOAEL (μg/kg/min) (molar equivalent to CXL-1020) (dogs): ≥180 µg/kg/min

CS(=O)(=O)c1cccc(S(=O)(=O)NO)c1 [Compound 2, N-Hydroxy-3-methanesulfonylbenzene-1-sulfonamide]
T1/2 (minutes) Human [1]: 37 min | EDV (normal canines): −17.41 ± 1.58 % Change from Baseline | ESP (normal canines): −15.22 ± 2.39 % Change from Baseline | ESPVR (normal canines): 25.87 ± 5.04 % Change from Baseline | HR (normal canines): −6.17 ± 5.58 % Change from Baseline | PRSW (normal canines): 12.88 ± 1.12 % Change from Baseline | SW (normal canines): −17.56 ± 2.66 % Change from Baseline | Tau (normal canines): −6.40 ± 7.11 % Change from Baseline | NOAEL (μg/kg/min) (molar equivalent to CXL-1020) (dogs): ≥180 µg/kg/min

O=S(=O)(NO)c1ccco1 [Compound 83, N-Hydroxyfuran-2-sulfonamide]
half-life at 5 μM [2]: 37 min | half-life at 5 μM [3]: 38 min | half-life at 5 μM [1]: 16 min | EDV (normal canines): −16.88 ± 1.69 % Change from Baseline | ESP (normal canines): −21.99 ± 3.32 % Change from Baseline | ESPVR (normal canines): 29.33 ± 8.36 % Change from Baseline | HR (normal canines): 2.89 ± 2.94 % Change from Baseline | PRSW (normal canines): 19.79 ± 3.39 % Change from Baseline | SW (normal canines): −19.18 ± 6.70 % Change from Baseline | Tau (normal canines): −10.10 ± 1.56 % Change from Baseline | NOAEL (μg/kg/min) (molar equivalent to CXL-1020) (dogs): ≥90 µg/kg/min | toxicological profile relative to CXL-1020 (dogs): substantially improved toxicological profile relative to CXL-1020

Cc1ccc(S(=O)(=O)NO)s1 [Compound 84, N-Hydroxy-5-methylthiophene-2-sulfonamide]
half-life at 5 μM [2]: 125 min | half-life at 5 μM [3]: 55 min | half-life at 5 μM [1]: 60 min | EDV (normal canines): −10.99 ± 2.33 % Change from Baseline | ESP (normal canines): −16.85 ± 2.33 % Change from Baseline | ESPVR (normal canines): 50.71 ± 8.14 % Change from Baseline | HR (normal canines): 4.31 ± 2.98 % Change from Baseline | PRSW (normal canines): 17.70 ± 2.35 % Change from Baseline | SW (normal canines): −13.98 ± 1.14 % Change from Baseline | Tau (normal canines): −9.60 ± 6.06 % Change from Baseline | NOAEL (μg/kg/min) (molar equivalent to CXL-1020) (dogs): ≥60 µg/kg/min | toxicological profile relative to CXL-1020 (dogs): substantially improved toxicological profile relative to CXL-1020

Cn1ccc(S(=O)(=O)NO)n1 [Compound 85, N-Hydroxy-1-methyl-1H-pyrazole-3-sulfonamide]
half-life at 5 μM [2]: 59 min | half-life at 5 μM [3]: 72 min | NOAEL (μg/kg/min) (molar equivalent to CXL-1020) (dogs): ≥180 µg/kg/min | toxicological profile relative to CXL-1020 (dogs): substantially improved toxicological profile relative to CXL-1020
